Consider 37 compounds from patent US10047105B2, “Gyrase inhibitors” (Merck Sharp & Dohme Corp., priority 2009, dated 2018).

In brackets after ≈: the same amount, converted by molar mass.

In one assay the test system is S. pneumoniae ATCC 51916. Nature of the assay: MIC, S. pneumoniae. Format: cell-based. The settings on record: S. pneumoniae.
In a further assay the test system is S. aureus ATCC 13709. Kind of assay: MIC, antibacterial potency, S. aureus. Format: cell-based. The settings on record: S. aureus.

In the case of `CCOc1nc(Nc2ccc(Cl)c3ncccc23)nc2[nH]c(CC)c(Br)c12.O=C(O)C(F)(F)F` [700,483], the MIC Spn52 against S. pneumoniae ATCC 51916 was found to be 32 µg/mL. In the assay with S. aureus ATCC 13709, this compound had an MIC, SA of 32 µg/mL.
For the compound `CCc1[nH]c2nc(Nc3cnc4c(c3)nnn4C(C)C)nc(N3CC(N)C3)c2c1Br.O=C(O)C(F)(F)F.O=C(O)C(F)(F)F` [700,484], the MIC Spn52 in the assay with S. pneumoniae ATCC 51916 came to 8 µg/mL. This compound returned an MIC, SA with S. aureus ATCC 13709 of 4 µg/mL.
Take `CCc1[nH]c2nc(Nc3cnc4c(c3)nnn4C(C)C)nc(N3CC(NC(=O)OC(C)(C)C)C3)c2c1Br.O=C(O)C(F)(F)F` [700,485]: the MIC Spn52 with S. pneumoniae ATCC 51916 was > 64 µg/mL. Also, the MIC, SA against S. aureus ATCC 13709 came to 4 µg/mL.
For the compound `CCc1[nH]c2nc(Sc3cnc4nccnc4c3)nc(OC3CNC3)c2c1Cl` [700,486], the MIC Spn52 in the assay with S. pneumoniae ATCC 51916 came out at 8 µg/mL (≈ 19.3 µM). The same compound displayed an MIC, SA against S. aureus ATCC 13709 of 16 µg/mL (≈ 38.7 µM).
For the compound `CCc1[nH]c2nc(Sc3cnc4nccnc4c3)nc(N3CC(CNS(C)(=O)=O)C3)c2c1Cl` [700,487], the MIC Spn52 in the assay on S. pneumoniae ATCC 51916 is ≤ 0.5 µg/mL. Moreover, in the assay with S. aureus ATCC 13709, the MIC, SA is ≤ 0.5 µg/mL.
For the compound `CCNC(=O)NC1CN(c2nc(Sc3cnc4nccnc4c3)nc3[nH]c(CC)c(Cl)c23)C1` [700,490], the MIC Spn52 against S. pneumoniae ATCC 51916 was 1 µg/mL (≈ 2.07 µM). For the same compound, the MIC, SA in the assay with S. aureus ATCC 13709 is > 64 µg/mL.
In the same order, the values of `CCNC(=O)NCC1CN(c2nc(Sc3cnc4nccnc4c3)nc3[nH]c(CC)c(Cl)c23)C1` [700,491] are 1 µg/mL (≈ 2.01 µM) and ≤ 0.5 µg/mL.
Regarding `CCc1[nH]c2nc(Sc3cnc4c(N)nc(N)nc4c3)nc(OCc3cccnc3)c2c1Cl.O=C(O)C(F)(F)F.O=C(O)C(F)(F)F` [700,492], in the assay on S. pneumoniae ATCC 51916, the MIC Spn52 is > 64 µg/mL. In the assay on S. aureus ATCC 13709, this compound showed an MIC, SA of 8 µg/mL.
In the same order, the values of `CCc1[nH]c2nc(Sc3cnc4c(N)nc(N)nc4c3)nc(OCCn3ccnc3)c2c1Cl.O=C(O)C(F)(F)F.O=C(O)C(F)(F)F` [700,493] are > 64 µg/mL and > 64 µg/mL.
The like results for `CCc1[nH]c2nc(Sc3cnc4c(N)nc(C)nc4c3)nc(OCCn3ccnc3)c2c1Cl.O=C(O)C(F)(F)F` [700,494] were, in that order, > 64 µg/mL and > 64 µg/mL.
In the same order, the values of `CCc1[nH]c2nc(Cc3cccnc3)nc(N3CC(N)C3)c2c1Cl` [700,495] are > 64 µg/mL and 64 µg/mL (≈ 187 µM).
Take `CCc1[nH]c2nc(Nc3cnc4c(c3)nnn4CC3CC3)nc(N3CC(S(=O)(=O)CC4CC4)C3)c2c1Br.O=C(O)C(F)(F)F` [700,496]: the MIC Spn52 with S. pneumoniae ATCC 51916 is > 64 µg/mL. In addition, the MIC, SA against S. aureus ATCC 13709 is > 64 µg/mL.
For `CCc1[nH]c2nc(Sc3cnc4nccnc4c3)nc(N3CC[C@H](N(C)C)C3)c2c1Cl.O=C(O)C(F)(F)F` [700,497], the MIC Spn52 with S. pneumoniae ATCC 51916 worked out at 4 µg/mL. This compound also had an MIC, SA with S. aureus ATCC 13709 of 1 µg/mL.
In the same order, the values of `CCc1[nH]c2nc(Nc3cnc4c(c3)nnn4CC3CC3)nc(N3CC(O)C3)c2c1Br.O=C(O)C(F)(F)F` [700,498] are > 64 µg/mL and 16 µg/mL.
On to `CCc1[nH]c2nc(Sc3cnc4nccnc4c3)nc(N3CC(CNC(=N)N)C3)c2c1Cl.O=C(O)C(F)(F)F` [700,502], for which the MIC Spn52 with S. pneumoniae ATCC 51916 is > 64 µg/mL. The MIC, SA with S. aureus ATCC 13709 stood at 16 µg/mL.
Turning to `CCc1[nH]c2nc(Sc3cnc4nccnc4c3)nc(N3CC(NC(=N)N)C3)c2c1Cl.O=C(O)C(F)(F)F` [700,503], the MIC Spn52 against S. pneumoniae ATCC 51916 is > 64 µg/mL. Also, the MIC, SA with S. aureus ATCC 13709 came out at 16 µg/mL.
With `CCc1[nH]c2nc(Sc3cnc4nccnc4c3)nc(N3CC(NC(=O)CN4CCNCC4)C3)c2c1Cl.O=C(O)C(F)(F)F.O=C(O)C(F)(F)F` [700,504], the MIC Spn52 with S. pneumoniae ATCC 51916 is 32 µg/mL. The MIC, SA in the assay with S. aureus ATCC 13709 came out at 4 µg/mL.
Consider `CCc1[nH]c2nc(Sc3cnc4nccnc4c3)nc(N3CC(NC(=O)CNC4CCOC4=O)C3)c2c1Cl.O=C(O)C(F)(F)F` (centres unmarked) [700,505], for which the MIC Spn52 in the assay on S. pneumoniae ATCC 51916 came to 32 µg/mL. In the assay on S. aureus ATCC 13709, this compound had an MIC, SA of 4 µg/mL.
The like results for `CCc1[nH]c2nc(Sc3cnc4nccnc4c3)nc(N3CC(NC(=O)COn4nnc5ccccc54)C3)c2c1Cl` [700,506] were, in that order, 1 µg/mL (≈ 1.7 µM) and ≤ 0.5 µg/mL.
For the compound `CCc1[nH]c2nc(Sc3cnc4c(C(C)C)nc(N)nc4c3)nc(OCCn3ccnc3)c2c1Cl.O=C(O)C(F)(F)F` [700,507], the MIC Spn52 in the assay on S. pneumoniae ATCC 51916 is > 64 µg/mL. In addition, in the assay with S. aureus ATCC 13709, the MIC, SA is > 64 µg/mL.
In the assay on S. pneumoniae ATCC 51916, `CCc1[nH]c2nc(Sc3cnc4nccnc4c3)nc(NCCNC(=O)OC(C)(C)C)c2c1Cl.O=C(O)C(F)(F)F` [700,508] had an MIC Spn52 of 4 µg/mL. Also, the MIC, SA in the assay on S. aureus ATCC 13709 amounted to 2 µg/mL.
In the same order, the values of `CCc1[nH]c2nc(Sc3cnc4nccnc4c3)nc(NCCN)c2c1Cl.O=C(O)C(F)(F)F` [700,509] are 16 µg/mL and 16 µg/mL.
Take `CCc1[nH]c2nc(Sc3cnc4nccnc4c3)nc(NCCN3CCCC3)c2c1Cl.O=C(O)C(F)(F)F` [700,510]: the MIC Spn52 against S. pneumoniae ATCC 51916 was > 64 µg/mL. Moreover, the MIC, SA in the assay with S. aureus ATCC 13709 was > 64 µg/mL.
On to `CCc1[nH]c2nc(Sc3cnc4nccnc4c3)nc(NCCN3CCNCC3)c2c1Cl.O=C(O)C(F)(F)F.O=C(O)C(F)(F)F` [700,511], for which the MIC Spn52 in the assay on S. pneumoniae ATCC 51916 was > 64 µg/mL. In the assay on S. aureus ATCC 13709, the MIC, SA was > 64 µg/mL.
With `CCc1[nH]c2nc(Sc3cnc4nccnc4c3)nc(NCCNC)c2c1Cl.O=C(O)C(F)(F)F` [700,512], in the assay with S. pneumoniae ATCC 51916, the MIC Spn52 was > 64 µg/mL. For the same compound, the MIC, SA in the assay on S. aureus ATCC 13709 was > 64 µg/mL.
For the compound `CCc1[nH]c2nc(Sc3cnc4nccnc4c3)nc(NCCN(C)C)c2c1Cl.O=C(O)C(F)(F)F` [700,513], the MIC Spn52 against S. pneumoniae ATCC 51916 was found to be 32 µg/mL. The MIC, SA in the assay with S. aureus ATCC 13709 is > 64 µg/mL.
The like results for `CCc1[nH]c2nc(Sc3cnc4c(N)nc(C)nc4c3)nc(N3CC(O)C3)c2c1Cl.O=C(O)C(F)(F)F` [700,514] were, in that order, ≤ 0.5 µg/mL and ≤ 0.5 µg/mL.
The like results for `CCc1[nH]c2nc(Sc3cnc4c(N)nc(C)nc4c3)nc(N3CC(N)C3)c2c1Cl.O=C(O)C(F)(F)F` [700,515] were, in that order, 1 µg/mL and 1 µg/mL.
The like results for `CCc1[nH]c2nc(Sc3cnc4nccnc4c3)nc(N3CC(CNC(=O)C4CC4)C3)c2c1Cl` [700,516] were, in that order, 1 µg/mL (≈ 2.02 µM) and ≤ 0.5 µg/mL.
In the assay with S. pneumoniae ATCC 51916, `CCc1[nH]c2nc(Sc3cnc4nccnc4c3)nc(N3CC(CNC(=O)C4CCC4)C3)c2c1Cl` [700,517] registered an MIC Spn52 of 2 µg/mL (≈ 3.93 µM). Also, the MIC, SA in the assay on S. aureus ATCC 13709 is ≤ 0.5 µg/mL.
The like results for `CCc1[nH]c2nc(Sc3cnc4nccnc4c3)nc(N3CC(CNC(=O)CCN4CCCCC4)C3)c2c1Cl` [700,518] were, in that order, 4 µg/mL (≈ 7.07 µM) and 4 µg/mL (≈ 7.07 µM).
In the same order, the values of `CCc1[nH]c2nc(Sc3cnc4nccnc4c3)nc(N3CC(CNC(=O)CN4C(=O)CSC4=O)C3)c2c1Cl` [700,519] are 1 µg/mL (≈ 1.71 µM) and 1 µg/mL (≈ 1.71 µM).
In the assay with S. pneumoniae ATCC 51916, `CCc1[nH]c2nc(Sc3cnc4nccnc4c3)nc(N3CC(CNC(=O)[C@@H]4CCC(=O)N4)C3)c2c1Cl` [700,520] came in with an MIC Spn52 of 16 µg/mL (≈ 29.7 µM). This compound also came in with an MIC, SA against S. aureus ATCC 13709 of 8 µg/mL (≈ 14.9 µM).
In the same order, the values of `CCc1[nH]c2nc(Sc3cnc4nccnc4c3)nc(N3CC(CNC(=O)C4CCC(O)CC4)C3)c2c1Cl` (centres unmarked) [700,521] are 2 µg/mL (≈ 3.62 µM) and 1 µg/mL (≈ 1.81 µM).
In the same order, the values of `CCc1[nH]c2nc(Sc3cnc4nccnc4c3)nc(N3CC(CNC(=O)C4CCCO4)C3)c2c1Cl` (centres unmarked) [700,522] are 2 µg/mL (≈ 3.81 µM) and ≤ 0.5 µg/mL.
As to `CCc1[nH]c2nc(Sc3cnc4nccnc4c3)nc(N3CC(CNC(=O)COCCOCCOC)C3)c2c1Cl` [700,523], the MIC Spn52 in the assay on S. pneumoniae ATCC 51916 came to 4 µg/mL (≈ 6.81 µM). For the same compound, the MIC, SA against S. aureus ATCC 13709 was 2 µg/mL (≈ 3.41 µM).
In the same order, the values of `CCc1[nH]c2nc(Sc3cnc4nccnc4c3)nc(N3CC(CNC(=O)c4cn(C)nc4C(F)(F)F)C3)c2c1Cl` [700,524] are ≤ 0.5 µg/mL and ≤ 0.5 µg/mL.
